≈ marks a conversion by molar mass, not a printed value. Read-outs that look alike come from different tables or passages of the source.
Assays:
[1] = test system: Pseudomonas fluorescens; test: MIC, broth two-fold serial dilution test, Psfl; type: cell-based; conditions: read-out: Minimum Inhibitory Concentration (MIC)
Method: (§1) A minimum inhibitory concentration (MIC) value is obtained using a broth, two-fold serial dilution test performed as follows: […] A volume of the stock solution is dispensed into culture media to give an initial starting test concentration of 500 ppm compound. The test is carried out by adding and equal volume of broth to each vessel in the dilution series, except for the first vessel. The first vessel contains twice the volume of broth plus the initial concentration of test compound. One half of the broth from the first vessel is transferred to the second vessel. After being mixed, one half the resulting volume is removed from the second vessel and transferred to the third vessel. The entire cycle is repeated sufficiently to give a series of concentrations amounting to 500, 250, 125, 63, 31, 16, 8, and 4 ppm (or 100, 50, 25, 12.5, 6.2, 3.1, 1.6, and 0.8), respectively. Each vessel is then inoculated with a cell suspension of the appropriate test organism. Bacteria are grown in both and fungi on agar slats for a time and at a temperature appropriate to the species being tested. At the end of the growth period, the broth is vortexed to disperse the cells. In the case of fungi, the pores are harvested by pipetting water onto the slant and dislodging the spores with a sterile loop. The cell/spore suspension is standardized by controlling incubation time, temperature, and the volume of the diluent. The suspension is then used to inoculate the vessels containing the broth compound. The vessels are then incubated at the appropriate temperature. After the incubation, the vessels are examined for growth/no growth. The minimum inhibitory concentration (MIC) is defined as the lowest concentration of compound that results in complete inhibition of growth of the test organism.

[2] = test system: Pseudomonas aerugenosa; test: MIC, broth two-fold serial dilution test, Psae; type: cell-based; conditions: read-out: Minimum Inhibitory Concentration (MIC)
Method: as §1

[3] = test system: Escherichia coli; test: MIC, broth two-fold serial dilution test, Ecol; type: cell-based; conditions: read-out: Minimum Inhibitory Concentration (MIC)
Method: as §1

[4] = test system: Staphylococcus aureus; test: MIC, broth two-fold serial dilution test, Saur; type: cell-based; conditions: read-out: Minimum Inhibitory Concentration (MIC)
Method: as §1

[5] = test system: Aspergillus niger; test: MIC, broth two-fold serial dilution test, Anig; type: cell-based; conditions: read-out: Minimum Inhibitory Concentration (MIC)
Method: as §1

[6] = test system: Aureobasidium pullulans; test: MIC, broth two-fold serial dilution test, Apul; type: cell-based; conditions: read-out: Minimum Inhibitory Concentration (MIC)
Method: as §1

[7] = test system: Cochliobolus sativus; test: In-vitro plant fungicide test, HEL; type: cell-based; conditions: Bipolaris sorokiniana, read-out: % Control; for inhibition of growth at 50 ppm: rate 50 PPM; for inhibition of growth at 25 ppm: rate 25 PPM
[8] = test system: Phytophthora capsici; test: In-vitro plant fungicide test, PHY; type: cell-based; conditions: read-out: % Control; for inhibition of growth at 50 ppm: rate 50 PPM; for inhibition of growth at 25 ppm: rate 25 PPM
[9] = test system: Piricularia oryzae; test: microbe, parasite or virus in culture; type: cell-based; conditions: read-out: % Control
[10] = test system: Pythium ultimum; test: In-vitro plant fungicide test, PYU; type: cell-based; conditions: Globisporangium ultimum, read-out: % Control; for inhibition of growth at 50 ppm: rate 50 PPM; for inhibition of growth at 25 ppm: rate 25 PPM
[11] = test system: Rhizoctonia solani; test: In-vitro plant fungicide test, RHI; type: cell-based; conditions: read-out: % Control; for inhibition of growth at 50 ppm: rate 50 PPM; for inhibition of growth at 25 ppm: rate 25 PPM
[12] = test system: Septoria nodorum; test: In-vitro plant fungicide test, SEP; type: cell-based; conditions: Parastagonospora nodorum, read-out: % Control; for inhibition of growth at 50 ppm: rate 50 PPM
[13] = test system: Xanthomonas campestris; test: In-vitro plant fungicide test, XAN; type: cell-based; conditions: read-out: % Control; for inhibition of growth at 25 ppm: rate 25 PPM
[14] = test system: Botrytis cinerea; test: In-vitro plant fungicide test, BOC; conditions: read-out: % Control
[15] = test system: Fusarium roseum; test: microbe, parasite or virus in culture; conditions: Fusarium sambucinum, read-out: % Control
[16] = test system: Phytophthora infestans; test: whole plant or invertebrate; type: in vivo; conditions: in Solanum lycopersicum, 96 h, read-out: % Control
[17] = test system: Puccinia recondita (f. sp. tritici Races PKB and PLD); test: whole plant or invertebrate; type: in vivo; conditions: 240 h
[18] = test system: Erysiphe graminis (f. sp. tritici); test: whole plant or invertebrate; type: in vivo; conditions: Blumeria graminis
[19] = test system: Pseudoperonospora cubensis; test: whole plant or invertebrate; type: in vivo; conditions: in Cucumis sativus, 168 h
[20] = test system: Piricularia oryzae; test: whole plant or invertebrate; type: in vivo; conditions: Pyricularia oryzae, 192 h, read-out: % Control
[21] = test system: Septoria glume blotch of wheat; test: whole plant or invertebrate; type: in vivo; conditions: Triticum aestivum

SMILES	MIC [1]	MIC [2]	MIC [3]	MIC [4]	MIC [5]	MIC [6]	inhibition of growth at 50 ppm [7]	inhibition of growth at 50 ppm [9]	inhibition of growth at 50 ppm [10]	inhibition of growth at 50 ppm [11]	inhibition of growth at 50 ppm [12]	inhibition of growth at 50 ppm [14]	inhibition of growth at 50 ppm [15]	inhibition of growth at 25 ppm [7]	inhibition of growth at 25 ppm [8]	inhibition of growth at 25 ppm [9]	pest or weed control at 200 ppm [19]	pest or weed control at 200 ppm [20]	pest or weed control at 200 ppm [16]	pest or weed control at 200 ppm [18]	further results
O=C(c1ccccc1)N(CC#CI)N=Cc1cccc([N+](=O)[O-])c1 [Compound 12, N'-Benzoyl-N'-3-iodopropargyl 3-nitrobenzaldehyde hydrazone]	> 100 µg/mL	> 100 µg/mL	> 100 µg/mL	> 100 µg/mL	> 100 µg/mL	100 µg/mL (≈ 231 µM)	0%	100%	0%	95%	0%	0%	0%								inhibition of growth at 50 ppm [8]: 0%; inhibition of growth at 50 ppm ([13]; XAN, rate 50 PPM): 0%
O=CN(CC#CBr)N=Cc1ccc(Cl)cc1 [Compound 2, N'-Formyl-N'-3-bromopropargyl 4-chlorobenzaldehyde hydrazone]	> 500 µg/mL	250 µg/mL (≈ 835 µM)	> 500 µg/mL	> 500 µg/mL	> 500 µg/mL	63 µg/mL (≈ 210 µM)								0%	75%	50%					inhibition of growth at 25 ppm [10]: 0%; inhibition of growth at 25 ppm [11]: 0%; inhibition of growth at 25 ppm ([13]; XAN): 0%; pest or weed control at 600 ppm [16]: 50%; pest or weed control at 600 ppm [17]: 0%; pest or weed control at 600 ppm [18]: 0%; inhibition of growth at 25 ppm [14]: 0%; inhibition of growth at 25 ppm [15]: 0%
COC(=O)N(CC#CI)N=Cc1ccc([N+](=O)[O-])o1 [Compound 8, N'-Methoxycarbonyl-N'-3-iodopropargyl 5-nitro-2-furancarboxaldehyde hydrazone]	250 µg/mL (≈ 663 µM)	125 µg/mL (≈ 331 µM)	63 µg/mL (≈ 167 µM)	< 4 µg/mL	< 4 µg/mL	< 4 µg/mL	100%	100%	100%	100%	100%	0%	100%				0%	90%	0%	0%	inhibition of growth at 50 ppm [13]: 0%; pest or weed control at 200 ppm [21]: 0%; pest or weed control at 200 ppm [17]: 0%
COC(=O)N(CC#CI)N=Cc1ccc(Cl)c(Cl)c1 [Compound 11, N'-Methoxycarbonyl-N'-3-iodopropargyl 3,4-dichlorobenzaldehyde hydrazone]	> 500 µg/mL	> 500 µg/mL	> 500 µg/mL	8 µg/mL (≈ 19.5 µM)	< 4 µg/mL	< 4 µg/mL	100%	100%	0%	100%	90%	50%	100%				95%	90%	80%	0%	inhibition of growth at 50 ppm [8]: 90%; inhibition of growth at 50 ppm ([13]; XAN, rate 50 PPM): 0%; pest or weed control at 200 ppm [21]: 0%
COC(=O)N(CC#CI)N=Cc1ccccc1 [Compound 3, N'-Methoxycarbonyl-N'-3-iodopropargyl benzaldehyde hyrazone]	> 500 µg/mL	250 µg/mL (≈ 731 µM)	> 500 µg/mL	125 µg/mL (≈ 365 µM)	< 4 µg/mL	< 4 µg/mL	0%	95%	100%	100%	75%	0%	100%	0%	75%	0%	99%	90%	80%	50%	inhibition of growth at 50 ppm [8]: 100%; inhibition of growth at 25 ppm [10]: 75%; inhibition of growth at 25 ppm [11]: 100%; inhibition of growth at 25 ppm ([13]; XAN): 0%; inhibition of growth at 50 ppm ([13]; XAN, rate 50 PPM): 0%; pest or weed control at 200 ppm [17]: 50%; inhibition of growth at 25 ppm [14]: 0%; inhibition of growth at 25 ppm [15]: 75%
COC(=O)N(CC#CBr)N=Cc1ccc(Cl)cc1 [Compound 1, N'-Methoxycarbonyl-N'-3-bromopropargyl 4-chlorobenzaldehyde hydrazone]	> 500 µg/mL	250 µg/mL (≈ 759 µM)	> 500 µg/mL	> 500 µg/mL	> 500 µg/mL	63 µg/mL (≈ 191 µM)								0%	0%	0%					inhibition of growth at 25 ppm [10]: 0%; inhibition of growth at 25 ppm [11]: 0%; inhibition of growth at 25 ppm ([13]; XAN): 0%; inhibition of growth at 25 ppm [14]: 0%; inhibition of growth at 25 ppm [15]: 0%
COC(=O)N(CC#CI)N=Cc1ccc(C)cc1 [Compound 4, N'-Methoxycarbonyl-N'-3-iodopropargyl 4-methylbenzaldehyde hydrazone]	125 µg/mL (≈ 351 µM)	125 µg/mL (≈ 351 µM)	250 µg/mL (≈ 702 µM)	16 µg/mL (≈ 44.9 µM)	< 4 µg/mL	8 µg/mL (≈ 22.5 µM)											95%	90%	80%	0%	pest or weed control at 200 ppm [21]: 50%; pest or weed control at 200 ppm [17]: 50%
O=C(c1ccccc1)N(CC#CI)N=Cc1ccccc1 [Compound 6, N'-Benzoyl-N'-3-iodopropargyl benzaldehyde hydrazone]	50 µg/mL (≈ 129 µM)	25 µg/mL (≈ 64.4 µM)	50 µg/mL (≈ 129 µM)	50 µg/mL (≈ 129 µM)	6 µg/mL (≈ 15.5 µM)	3 µg/mL (≈ 7.73 µM)								0%	100%	100%					inhibition of growth at 25 ppm [10]: 100%; inhibition of growth at 25 ppm [11]: 0%; inhibition of growth at 25 ppm ([12]; rate 25 PPM): 100%; inhibition of growth at 25 ppm ([13]; XAN): 0%; inhibition of growth at 25 ppm [14]: 0%; inhibition of growth at 25 ppm [15]: 0%
COC(=O)N(CC#CI)N=Cc1ccc(Cl)cc1 [Compound 5, N'-Methoxycarbonyl-N'-3-iodopropargyl 4-chlorobenzaldehyde hydrazone]	125 µg/mL (≈ 332 µM)	16 µg/mL (≈ 42.5 µM)	125 µg/mL (≈ 332 µM)	8 µg/mL (≈ 21.2 µM)	< 4 µg/mL	< 4 µg/mL								100%	50%	100%	99%	95%	90%	0%	inhibition of growth at 25 ppm [10]: 50%; inhibition of growth at 25 ppm [11]: 75%; inhibition of growth at 25 ppm ([13]; XAN): 0%; pest or weed control at 200 ppm [21]: 0%; pest or weed control at 200 ppm [17]: 80%; inhibition of growth at 25 ppm [14]: 0%; inhibition of growth at 25 ppm [15]: 95%
COC(=O)N(CC#CI)N=Cc1ccc(C#N)cc1 [Compound 9, N'-Methoxycarbonyl-N'-3-iodopropargyl 4-cyanobenzaldehyde hydrazone]	> 500 µg/mL	> 500 µg/mL	> 500 µg/mL	> 500 µg/mL	> 250 µg/mL		100%	100%	100%	100%	100%	50%	100%				85%	0%	0%	0%	inhibition of growth at 50 ppm [8]: 95%; inhibition of growth at 50 ppm ([13]; XAN, rate 50 PPM): 0%; pest or weed control at 200 ppm [21]: 0%; pest or weed control at 200 ppm [17]: 0%
